For data set [1], the system named is Human immunodeficiency virus 1. The experiment in a line: Antiviral activity against HIV1 infected in human CEM-SS cells assessed as inhibition of viral replication and virus-induced cytopathic effect by dose-response curve analysis. The data set is classed as functional. As to conditions: Human immunodeficiency virus 1, CEM-SS. A general note: Protection from cytopathic effect is a common read-out in antiviral testing.

Data set [2] concerns Simian immunodeficiency virus. The experiment in a line: Antiviral activity against SIV MAC251 infected in human 174xCEM cells assessed as inhibition of virus-induced cytopathic effect. The data set is classed as functional, organism-based.
Data set [3] concerns Human immunodeficiency virus 2. The experiment in a line: Antiviral activity against HIV2 assessed as inhibition of viral replication treated at time points after viral entry into host cells. The class given is functional, organism-based.
The test system of data set [4] is Human immunodeficiency virus 1. The experiment in a line: Antiviral activity against HIV1 infected in human HeLa cells expressing CD4-LTR assessed as inhibition of viral entry-related beta galactosidase expression at 0.5 uM followed by drug wash out and viral infection measured after 48 hrs by MAGI assay. The data set is classed as functional, organism-based.
The target in data set [5] is Human immunodeficiency virus type 1 reverse transcriptase (Human immunodeficiency virus 1, UniProt Q72547, K103N). The experiment in a line: Inhibition of HIV1 reverse transcriptase K103N mutant assessed as 32P-labeled GMP incorporation into nascent DNA strand.
Data set [6] deals with Human immunodeficiency virus 2. The experiment in a line: Inhibition of HIV2 reverse transcriptase assessed as 32P-labeled GMP incorporation into nascent DNA strand at highest concentration.
Data set [7] deals with Human immunodeficiency virus 2. The experiment in a line: Antiviral activity against HIV2 assessed as inhibition of viral single round replication at early time point. The class given is functional, organism-based.
Data set [8] is described as follows: Cytotoxicity against human HeLa cells expressing CD4-LTR by XTT assay. The class given is cell-based. Conditions: read-out: TC50 (the source's name). (Formazan colour is commonly taken as a measure of viable cells.)
The subject of data set [9] is Human immunodeficiency virus 1. The experiment in a line: Antiviral activity against HIV1 infected in human HeLa cells expressing CD4-LTR assessed as inhibition of viral entry-related beta galactosidase expression treated for 2 hrs followed by drug wash out measured after 48 hrs by MAGI assay. The data set is classed as functional, organism-based.
A short description of data set [10]: Cytotoxicity against human CEM-SS cells by XTT assay. The class given is cell-based. As to conditions: read-out: TC50 (the source's name).
Data set [11] can be described thus: Therapeutic index, ratio of TC50 for human CEM-SS cells to EC50 for HIV2 ROD infected in human CEM-SS cells. The class given is cell-based. Conditions: CEM-SS cells, read-out: TI.
The subject of data set [12] is HeLa. The experiment in a line: Inhibition of HIV1 gp120/CD4 interaction assessed as inhibition of gp120 and gp41 coexpressing human HL2/3 cell fusion to CD4 expressing human HeLa cells treated for 2 hrs measured after 48 hrs by chemiluminescence assay. The data set is classed as cell-based. Conditions: Human immunodeficiency virus 1.
Data set [13] addresses Human immunodeficiency virus type 1 reverse transcriptase (Human immunodeficiency virus 1, UniProt Q72547). The experiment in a line: Inhibition of wild type HIV1 reverse transcriptase assessed as 32P-labeled GMP incorporation into nascent DNA strand.
Data set [14] concerns Human immunodeficiency virus 1. The experiment in a line: Antiviral activity against HIV1 RF infected in human CEM-SS cells assessed as inhibition of virus-induced cytopathic effect by XTT assay. As to conditions: Human immunodeficiency virus 1, RF. The data set is classed as functional, organism-based.
In data set [15] the test system is Human immunodeficiency virus 2. The experiment in a line: Antiviral activity against HIV2 ROD infected in human CEM-SS cells assessed as inhibition of virus-induced cytopathic effect by XTT assay. The class given is functional, organism-based, ISOLATE ROD. Conditions: Human immunodeficiency virus 2, ISOLATE ROD, CEM-SS; read-out: EC50.
Data set [16] is described as follows: Therapeutic index, ratio of TC50 human HeLa cells expressing CD4-LTR to EC50 for HIV1 entry inhibition in human HeLa cells expressing CD4-LTR. The data set is classed as cell-based. As to conditions: read-out: TI.
Data set [17] relates to Human immunodeficiency virus 2. The experiment in a line: Antiviral activity against HIV2 infected in human CEM-SS cells assessed as inhibition of viral replication and virus-induced cytopathic effect by dose-response curve analysis. The data set is classed as functional. Conditions: Human immunodeficiency virus 2, CEM-SS.
Data set [18] is described as follows: Therapeutic index, ratio of TC50 for human CEM-SS cells to EC50 for HIV1 RF infected in human CEM-SS cells. The data set is classed as cell-based. Conditions: read-out: TI.
Data set [19] concerns Human immunodeficiency virus 2. The experiment in a line: Inhibition of HIV2 reverse transcriptase.
Data set [20] has as its system Human immunodeficiency virus 1. The experiment in a line: Antiviral activity against HIV1 infected in human HeLa cells expressing CD4-LTR assessed as inhibition of viral entry-related beta galactosidase expression at > 0.5 uM followed by drug wash out and viral infection measured after 48 hrs by MAGI assay. The class given is functional, organism-based.
In data set [21] the test system is Human immunodeficiency virus 1. The experiment in a line: Antiviral activity against HIV1 infected in human HeLa cells expressing CD4-LTR assessed as inhibition of viral entry-related beta galactosidase expression at 0.2 to 0.4 uM followed by drug wash out and viral infection measured after 48 hrs by MAGI assay. The class given is functional, organism-based.
Data set [22] concerns Human immunodeficiency virus 1. The experiment in a line: Antiviral activity against HIV1 infected in human HeLa cells expressing CD4-LTR assessed as inhibition of viral entry-related beta galactosidase expression pretreated 2 hrs before viral infection measured after 48 hrs of infection by MAGI assay. The data set is classed as functional, organism-based.
Data set [23] relates to Human immunodeficiency virus 1. The experiment in a line: Antiviral activity against HIV1 infected in human HeLa cells expressing CD4-LTR assessed as inhibition of viral entry-related beta galactosidase expression at > 10 ug/ml followed by drug wash out and viral infection measured after 48 hrs by MAGI assay. The class given is functional, organism-based.

Calls of active or inactive are those of the source. Unless noted, the calls are words filed in the database; no cut-off is given here.

By EC99 is commonly meant the point of the concentration-response curve where the effect stands at 99%. By IC50 is commonly meant the concentration needed to halve the response being measured. One may read the EC50 as the concentration needed to bring the measured effect to its halfway point. As to `CCc1c(C(=O)c2cc(C)cc(C)c2)n(CC2CC=CC2)c(=O)[nH]c1=O`, the EC99 in data set [1] was 1 µM; in data set [17] it was 100 µM. Besides, the outcome in [2], in [3], in data set [4], in [6] and in data set [19] was inactive. Besides, the IC50 in data set [5] came to 2.6 µM; in data set [13], 0.179 µM. The outcome in data set [7] was Active. Also, the CC50 in [8] came out at 1120 µM; in data set [10], 1100 µM. The EC50 in data set [9] (Human immunodeficiency virus 1, HeLa) came out at 0.07 µM; in data set [14] it was 0.002 µM; in [15], 16 µM. The selectivity ratio in [11] was > 71; in [16], 15700; in data set [18], 553000. The inhibition entry in [12] is “inactive”.

`Cc1cn([C@H]2C[C@H](N=[N+]=[N-])[C@@H](CO)O2)c(=O)[nH]c1=O`: the outcome in data set [20] was inactive.

With `O=C1Nc2ccc(Cl)cc2[C@@](C#CC2CC2)(C(F)(F)F)O1` [EFAVIRENZ], the outcome in [21] was Active. Also, the Activity in [9] turned out to be 0.02 µM.

Regarding `COc1cc(-c2ccc(/N=N/c3ccc4c(S(=O)(=O)O)cc(S(=O)(=O)O)c(N)c4c3O)c(OC)c2)ccc1/N=N/c1ccc2c(S(=O)(=O)O)cc(S(=O)(=O)O)c(N)c2c1O`, the outcome in data set [22] and in [9] was Active. The result in data set [23] was inactive.

Values taken from ChEMBL document CHEMBL1152465, “Comparative evaluation of the inhibitory activities of a series of pyrimidinedione congeners that inhibit human immunodeficiency virus types 1 and 2” (Antimicrob Agents Chemother, 2008).
